# *1 amine or outer side, *2 acyl side, *3 side chain or, on linkers, in order; H or OH if unused. Where a SMILES comes first, the peptide text is derived from it. Bridges are numbered along the chain shown (N, C = ends). Roman numbers before positions name the chains, in order. [ ]: non-standard residue; d: D form. The star is where a group is joined. ξ: configuration not given here. TATA = O=C(CC[*:1])N1CN(C(=O)CC[*:2])CN(C(=O)CC[*:3])C1; Dolaproine = CO[C@@H]([C@@H]1CCCN1)[C@@H](C)C(=O)O; X1 = CC[C@H](C)C(C(CC(=O)[*:2])OC)N(C)[*:1]; 1Nal = N[C@@H](Cc1cccc2ccccc12)C(=O)O; X3 = O=C(CCCC(=O)[*:2])NCCC(=O)[*:1]; PABC = O=C(OCc1ccc(N[*:1])cc1)[*:2]; Hyp = O=C(O)[C@@H]1C[C@@H](O)CN1; hArg = N=C(N)NCCCC[C@H](N)C(=O)O; Cit = NC(=O)NCCC[C@H](N)C(=O)O; X2 = CC(N*)[C@@H](O)c1ccccc1; ξNMeV = CNC(C(=O)O)C(C)C; ξV = CC(C)C(N)C(=O)O; Sar = CNCC(=O)O
# Experiments:
# HT-1376 xenograft = assay: Example 9.3: in vivo efficacy in HT-1376 xenograft in CB17-SCID mice; set-up: species or system Mus Musculus; conditions: for TGI / Tumor volume (TV) / Tumor volume / T/C: day 14; for Tumor volume trace over time: mean; for Tumor volume: mean ± SEM; for T/C: treated/control group average tumor volume
# [1] = BCY8245 (BT8009) at 3 mg/kg
# Description: At various timepoints, animals were euthanized and plasma and tumour taken and snap frozen. Samples were analysed for MMAE.
# Panc2.13 xenograft = assay: Example 9.7: in vivo efficacy in Panc2.13 xenograft in Balb/c nude mice; conditions: for Tumor volume: iv
# Description: The major endpoint was to see if the tumor growth could be delayed or mice could be cured. Tumor volume was measured three times weekly in two dimensions using a caliper, and the volume was expressed in mm^3 using the formula: V=0.5 a×b^2 where a and b are the long and short diameters of the tumor, respectively. The tumor size was then used for calculations of T/C value. The T/C value (in percent) is an indication of antitumor effectiveness; T and C are the mean volumes of the treated and control groups, respectively, on a given day. TGI was calculated for each group using the formula: TGI (%)=[1−(Ti−T0)/(Vi−V0)]×100; Ti is the average tumor volume of a treatment group on a given day, T0 is the average tumor volume of the treatment group on the day of treatment start, Vi is the average tumor volume of the vehicle control group on the same day with Ti, and V0 is the average tumor volume of the vehicle group on the day of treatment start.
# A one-way ANOVA was performed to compare tumor volume among groups, and when a significant F-statistics (a ratio of treatment variance to the error variance) was obtained, comparisons between groups were carried out with Games-Howell test. All data were analyzed using GraphPad Prism 5.0. P<0.05 was considered to be statistically significant.
# • Species: Mus Musculus • Strain: Balb/c nude • Age: 6-8 weeks • Sex: female • Body weight: 18-22 g • Number of animals: 41 mice plus spare 3.1.2.
# The Panc2.13 tumor cells will be maintained in RMPI1640 medium supplemented with 15% heat inactivated fetal bovine serum and 10 units/ml human recombinant insulin at 37° C. in an atmosphere of 5% CO2 in air. The tumor cells will be routinely subcultured twice weekly. The cells growing in an exponential growth phase will be harvested and counted for tumor inoculation.
# Each mouse was inoculated subcutaneously at the right flank with Panc2.13 tumor cells (5×10^6 with Matrigel (1:1) in 0.2 ml of PBS for tumor development. 41 animals were randomized when the average tumor volume reached 149 mm^3. The test article administration and the animal numbers in each group were shown in the experimental design table.
# Tumor growth inhibition rate for Test articles in the Panc2.13 xenograft model was calculated based on tumor volume measurements at day 14 after the start of treatment.
compound,measurement,setting,value
"CC[C@H](C)C(C(CC(=O)N1CCC[C@H]1[C@H](OC)[C@@H](C)C(=O)NC(C)[C@@H](O)c1ccccc1)OC)N(C)C(=O)[C@@H](NC(=O)C(C(C)C)N(C)C(=O)OCc1ccc(NC(=O)[C@H](CCCNC(N)=O)NC(=O)C(NC(=O)CCCC(=O)NCCC(=O)N(C)CC(=O)N(C)CC(=O)N(C)CC(=O)N(C)CC(=O)N(C)CC(=O)N(C)CC(=O)N(C)CC(=O)N(C)CC(=O)N(C)CC(=O)N(C)CC(=O)N[C@H]2CSCCC(=O)N3CN4CN(C3)C(=O)CCSC[C@H](NC(=O)[C@@H](CC(=O)O)NC(=O)[C@H](Cc3cccc5ccccc35)NC(=O)[C@@H]3CCCN3C2=O)C(=O)N[C@@H](CCSC)C(=O)N[C@@H](CCCCNC(=N)N)C(=O)N[C@@H](CC(=O)O)C(=O)N[C@@H](Cc2c[nH]c3ccccc23)C(=O)N[C@@H](CO)C(=O)N[C@@H]([C@@H](C)O)C(=O)N2CCC[C@H]2C(=O)N2C[C@H](O)C[C@H]2C(=O)N[C@@H](Cc2c[nH]c3ccccc23)C(=O)N[C@H](C(N)=O)CSCCC4=O)C(C)C)cc1)C(C)C (stereo partly drawn) [BCY8245, MMAE-PABC-Cit-Val-Glutaryl-BCY8234] (I: [Sar][Sar][Sar][Sar][Sar][Sar][Sar][Sar][Sar][Sar]CP[1Nal][dD]CM[hArg]DWSTP[Hyp]WC-NH2 / II: [ξV][Cit][PABC][ξNMeV]V[X1][Dolaproine]-X2; linker I:11-I:15-I:25 via TATA; linker I:N-II:N via X3)",TGI,HT-1376 xenograft; 3 mg/kg biw,72.3%
same,Tumor volume (TV),HT-1376 xenograft; 3 mg/kg biw,407 mm^3
same,TGI,HT-1376 xenograft; 3 mg/kg qw,50.9%
same,Tumor volume (TV),HT-1376 xenograft; 3 mg/kg qw,603 mm^3
same,TGI,HT-1376 xenograft; 5 mg/kg qw,66.0%
same,Tumor volume (TV),HT-1376 xenograft; 5 mg/kg qw,465 mm^3
same,Tumor volume trace over time,"HT-1376 xenograft; 3 mpk, biw, iv, day 0 after the start of treatment",154 mm^3
same,Tumor volume trace over time,"HT-1376 xenograft; 3 mpk, biw, iv, day 2 after the start of treatment",248 mm^3
same,Tumor volume trace over time,"HT-1376 xenograft; 3 mpk, biw, iv, day 5 after the start of treatment",203 mm^3
same,Tumor volume trace over time,"HT-1376 xenograft; 3 mpk, biw, iv, day 7 after the start of treatment",273 mm^3
same,Tumor volume trace over time,"HT-1376 xenograft; 3 mpk, biw, iv, day 9 after the start of treatment",356 mm^3
same,Tumor volume trace over time,"HT-1376 xenograft; 3 mpk, biw, iv, day 12 after the start of treatment",391 mm^3
same,TGI,"HT-1376 xenograft; 3 mpk, biw, iv",72.3%
same,Tumor volume,"HT-1376 xenograft; 3 mpk, biw, iv",407 ± 53 mm^3
same,T/C,"HT-1376 xenograft; 3 mpk, biw, iv",38.1%
same,Tumor volume trace over time,"HT-1376 xenograft; 3 mpk, biw, iv, day 14 after the start of treatment",407 mm^3
same,Tumor volume trace over time,"HT-1376 xenograft; 3 mpk, qw, iv, day 0 after the start of treatment",153 mm^3
same,Tumor volume trace over time,"HT-1376 xenograft; 3 mpk, qw, iv, day 2 after the start of treatment",254 mm^3
same,Tumor volume trace over time,"HT-1376 xenograft; 3 mpk, qw, iv, day 5 after the start of treatment",298 mm^3
same,Tumor volume trace over time,"HT-1376 xenograft; 3 mpk, qw, iv, day 7 after the start of treatment",398 mm^3
same,Tumor volume trace over time,"HT-1376 xenograft; 3 mpk, qw, iv, day 9 after the start of treatment",468 mm^3
same,Tumor volume trace over time,"HT-1376 xenograft; 3 mpk, qw, iv, day 12 after the start of treatment",502 mm^3
same,TGI,"HT-1376 xenograft; 3 mpk, qw, iv",50.9%
same,Tumor volume,"HT-1376 xenograft; 3 mpk, qw, iv",603 ± 76 mm^3
same,T/C,"HT-1376 xenograft; 3 mpk, qw, iv",56.4%
same,Tumor volume trace over time,"HT-1376 xenograft; 3 mpk, qw, iv, day 14 after the start of treatment",603 mm^3
same,Tumor volume trace over time,"HT-1376 xenograft; 5 mpk, qw, iv, day 0 after the start of treatment",153 mm^3
same,Tumor volume trace over time,"HT-1376 xenograft; 5 mpk, qw, iv, day 2 after the start of treatment",237 mm^3
same,Tumor volume trace over time,"HT-1376 xenograft; 5 mpk, qw, iv, day 5 after the start of treatment",228 mm^3
same,Tumor volume trace over time,"HT-1376 xenograft; 5 mpk, qw, iv, day 7 after the start of treatment",317 mm^3
same,Tumor volume trace over time,"HT-1376 xenograft; 5 mpk, qw, iv, day 9 after the start of treatment",394 mm^3
same,Tumor volume trace over time,"HT-1376 xenograft; 5 mpk, qw, iv, day 12 after the start of treatment",438 mm^3
same,TGI,"HT-1376 xenograft; 5 mpk, qw, iv",66.0%
same,Tumor volume,"HT-1376 xenograft; 5 mpk, qw, iv",465 ± 33 mm^3
same,T/C,"HT-1376 xenograft; 5 mpk, qw, iv",43.5%
same,Tumor volume trace over time,"HT-1376 xenograft; 5 mpk, qw, iv, day 14 after the start of treatment",465 mm^3
same,retention of MMAE in tumour versus plasma (in words),[1],retained in the tumour longer than in plasma
same,TGI,"Panc2.13 xenograft; 3 mg/kg biw, day 14",79.1%
same,Tumor volume (TV),"Panc2.13 xenograft; 3 mg/kg biw, day 14",231 mm^3
same,TGI,"Panc2.13 xenograft; 3 mg/kg qw, day 14",69.2%
same,Tumor volume (TV),"Panc2.13 xenograft; 3 mg/kg qw, day 14",271 mm^3
same,TGI,"Panc2.13 xenograft; 5 mg/kg qw, day 14",77.5%
same,Tumor volume (TV),"Panc2.13 xenograft; 5 mg/kg qw, day 14",238 mm^3
same,Tumor volume,"Panc2.13 xenograft; 3 mpk, biw, day 0 after the start of treatment",148 mm^3
same,Tumor volume,"Panc2.13 xenograft; 3 mpk, biw, day 2",170 mm^3
same,Tumor volume,"Panc2.13 xenograft; 3 mpk, biw, day 4",204 mm^3
same,Tumor volume,"Panc2.13 xenograft; 3 mpk, biw, day 7",216 mm^3
same,Tumor volume,"Panc2.13 xenograft; 3 mpk, biw, day 9",236 mm^3
same,Tumor volume,"Panc2.13 xenograft; 3 mpk, biw, day 11",241 mm^3
same,Tumor volume,"Panc2.13 xenograft; 3 mpk, biw, day 14",231 mm^3
same,T/C,"Panc2.13 xenograft; 3 mpk, biw, day 14",42.3%
same,TGI,"Panc2.13 xenograft; 3 mpk, biw, day 14",79.1%
same,Tumor Volume (Mean ± SEM),"Panc2.13 xenograft; 3 mpk, biw, day 14",231 ± 57 mm^3
same,Tumor volume,"Panc2.13 xenograft; 3 mpk, qw, day 0 after the start of treatment",149 mm^3
same,Tumor volume,"Panc2.13 xenograft; 3 mpk, qw, day 2",160 mm^3
same,Tumor volume,"Panc2.13 xenograft; 3 mpk, qw, day 4",191 mm^3
same,Tumor volume,"Panc2.13 xenograft; 3 mpk, qw, day 7",215 mm^3
same,Tumor volume,"Panc2.13 xenograft; 3 mpk, qw, day 9",242 mm^3
same,Tumor volume,"Panc2.13 xenograft; 3 mpk, qw, day 11",259 mm^3
same,Tumor volume,"Panc2.13 xenograft; 3 mpk, qw, day 14",271 mm^3
same,T/C,"Panc2.13 xenograft; 3 mpk, qw, day 14",49.6%
same,TGI,"Panc2.13 xenograft; 3 mpk, qw, day 14",69.2%
same,Tumor Volume (Mean ± SEM),"Panc2.13 xenograft; 3 mpk, qw, day 14",271 ± 54 mm^3

# Reference: US12459974B2, “Bicyclic peptide ligands specific for Nectin-4” (priority 2018, dated 2025)
